Among the data in ChEMBL document CHEMBL5465560, “Selectivity Literature for EUbOPEN Chemogenomic Library” (2024) are % of control, activity and % of inhibition values, retold here.

Data set [1] addresses T1, Ephrin type-B receptor 4 (Homo sapiens) (UniProt P54760).
T1 sequence (whole entry): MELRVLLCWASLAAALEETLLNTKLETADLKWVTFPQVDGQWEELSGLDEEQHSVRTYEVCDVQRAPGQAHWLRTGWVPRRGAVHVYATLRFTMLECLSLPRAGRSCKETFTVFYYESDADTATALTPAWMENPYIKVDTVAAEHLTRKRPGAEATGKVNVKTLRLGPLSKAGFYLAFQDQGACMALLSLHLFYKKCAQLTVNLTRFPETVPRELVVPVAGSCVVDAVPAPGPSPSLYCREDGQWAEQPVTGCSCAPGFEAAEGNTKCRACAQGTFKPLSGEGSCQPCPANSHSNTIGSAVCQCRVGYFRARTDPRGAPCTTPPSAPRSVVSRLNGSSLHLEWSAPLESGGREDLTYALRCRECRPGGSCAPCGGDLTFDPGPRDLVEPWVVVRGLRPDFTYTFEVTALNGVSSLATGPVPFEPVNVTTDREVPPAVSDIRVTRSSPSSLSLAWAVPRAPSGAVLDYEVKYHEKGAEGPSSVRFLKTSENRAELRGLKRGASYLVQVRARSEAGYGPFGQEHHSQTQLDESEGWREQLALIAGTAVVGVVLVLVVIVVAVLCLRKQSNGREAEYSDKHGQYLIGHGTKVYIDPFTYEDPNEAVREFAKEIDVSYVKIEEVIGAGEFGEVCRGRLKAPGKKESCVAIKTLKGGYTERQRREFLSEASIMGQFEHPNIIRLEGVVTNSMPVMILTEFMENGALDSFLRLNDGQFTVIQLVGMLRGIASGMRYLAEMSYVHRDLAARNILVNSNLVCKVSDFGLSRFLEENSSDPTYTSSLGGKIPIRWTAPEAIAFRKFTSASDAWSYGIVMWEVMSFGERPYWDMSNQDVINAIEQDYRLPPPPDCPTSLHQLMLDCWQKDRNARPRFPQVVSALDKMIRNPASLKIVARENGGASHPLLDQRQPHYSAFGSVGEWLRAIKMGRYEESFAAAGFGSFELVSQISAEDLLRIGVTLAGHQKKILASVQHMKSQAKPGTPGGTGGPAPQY
The data set is described as follows: Selectivity interaction (Kinase panel (Z-LYTE Assay)) EUB0001632a EPHB4. The following applies: at 10 µM.

In data set [2] the target is Calcium/calmodulin-dependent protein kinase type 1G (Homo sapiens) (UniProt Q96NX5). The following applies: at 10 µM.
Sequence of Calcium/calmodulin-dependent protein kinase type 1G (Homo sapiens) (Q96NX5 whole entry): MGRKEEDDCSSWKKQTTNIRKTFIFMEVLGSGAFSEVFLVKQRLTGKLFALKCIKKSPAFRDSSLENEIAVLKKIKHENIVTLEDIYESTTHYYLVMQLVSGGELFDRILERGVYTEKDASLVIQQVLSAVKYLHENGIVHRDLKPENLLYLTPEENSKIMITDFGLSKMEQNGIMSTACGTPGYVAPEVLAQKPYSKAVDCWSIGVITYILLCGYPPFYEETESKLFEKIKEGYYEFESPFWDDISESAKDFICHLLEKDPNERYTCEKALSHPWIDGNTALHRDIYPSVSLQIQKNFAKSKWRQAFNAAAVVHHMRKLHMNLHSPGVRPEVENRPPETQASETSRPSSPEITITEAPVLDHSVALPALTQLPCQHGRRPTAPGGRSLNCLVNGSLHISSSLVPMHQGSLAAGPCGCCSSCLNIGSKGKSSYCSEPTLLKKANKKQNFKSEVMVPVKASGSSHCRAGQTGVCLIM
For data set [3], the target named is L-type calcium channel Cav1.2 (CACNA1C) (Homo sapiens, UniProt Q13936). As to the kind of experiment: Selectivity interaction (Eurofins CEREP Diversity Profile (receptors and ion channels)) EUB0000279b CACNA1C. The following applies: at 10 µM, read-out: % of control.
Data set [4] has as its target T2, Phosphatidylinositol 5-phosphate 4-kinase type-2 beta (Homo sapiens) (UniProt P78356).
T2 sequence (whole entry): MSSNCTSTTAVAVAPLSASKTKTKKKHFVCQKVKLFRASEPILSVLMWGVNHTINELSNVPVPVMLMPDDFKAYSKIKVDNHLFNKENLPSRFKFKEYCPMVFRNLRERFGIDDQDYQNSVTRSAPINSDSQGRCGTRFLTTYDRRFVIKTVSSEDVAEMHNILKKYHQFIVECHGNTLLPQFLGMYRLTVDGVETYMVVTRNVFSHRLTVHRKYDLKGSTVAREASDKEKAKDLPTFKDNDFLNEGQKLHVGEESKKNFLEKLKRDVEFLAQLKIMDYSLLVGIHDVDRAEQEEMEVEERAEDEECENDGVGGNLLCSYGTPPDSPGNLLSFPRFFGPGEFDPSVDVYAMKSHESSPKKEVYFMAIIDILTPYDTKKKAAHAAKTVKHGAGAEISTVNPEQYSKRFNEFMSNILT
As to the kind of experiment: Selectivity interaction (KinomeScan (DiscoverX)) EUB0000695a PIP4K2B. The following applies: at 100 nM.

The subject of data set [5] is Epidermal growth factor receptor (Homo sapiens), P00533 [L858R]. As to the kind of experiment: (§1) Selectivity interaction (KinomeScan (DiscoverX)) EUB0000607a EGFR. As to conditions: at 10 µM.
The target in data set [6] is Epidermal growth factor receptor (Homo sapiens, UniProt P00533). Described as §1. As to conditions: at 10 µM.
Data set [7] deals with Epidermal growth factor receptor (Homo sapiens), P00533 [L861Q]. The data set is described as §1. The following applies: at 10 µM.
The test system of data set [8] is Epidermal growth factor receptor (Homo sapiens), P00533 [G719S]. Described as §1. As to conditions: at 10 µM.
Data set [9] has as its system Epidermal growth factor receptor (Homo sapiens), P00533 [T790M]. Described as §1. As to conditions: at 10 µM.
Data set [10] concerns Epidermal growth factor receptor (Homo sapiens), P00533 [G719C]. Described as §1. The following applies: at 10 µM.
For data set [11], the system named is Epidermal growth factor receptor (Homo sapiens), P00533 [UNDEFINED MUTATION]. The description is as §1. The following applies: at 10 µM.
For data set [12], the system named is Epidermal growth factor receptor (Homo sapiens), P00533 [L858R,T790M]. Described as §1. As to conditions: at 10 µM.
Sequence of Epidermal growth factor receptor (Homo sapiens), P00533 [L858R,T790M] (P00533 whole entry T790M/L858R, looked up): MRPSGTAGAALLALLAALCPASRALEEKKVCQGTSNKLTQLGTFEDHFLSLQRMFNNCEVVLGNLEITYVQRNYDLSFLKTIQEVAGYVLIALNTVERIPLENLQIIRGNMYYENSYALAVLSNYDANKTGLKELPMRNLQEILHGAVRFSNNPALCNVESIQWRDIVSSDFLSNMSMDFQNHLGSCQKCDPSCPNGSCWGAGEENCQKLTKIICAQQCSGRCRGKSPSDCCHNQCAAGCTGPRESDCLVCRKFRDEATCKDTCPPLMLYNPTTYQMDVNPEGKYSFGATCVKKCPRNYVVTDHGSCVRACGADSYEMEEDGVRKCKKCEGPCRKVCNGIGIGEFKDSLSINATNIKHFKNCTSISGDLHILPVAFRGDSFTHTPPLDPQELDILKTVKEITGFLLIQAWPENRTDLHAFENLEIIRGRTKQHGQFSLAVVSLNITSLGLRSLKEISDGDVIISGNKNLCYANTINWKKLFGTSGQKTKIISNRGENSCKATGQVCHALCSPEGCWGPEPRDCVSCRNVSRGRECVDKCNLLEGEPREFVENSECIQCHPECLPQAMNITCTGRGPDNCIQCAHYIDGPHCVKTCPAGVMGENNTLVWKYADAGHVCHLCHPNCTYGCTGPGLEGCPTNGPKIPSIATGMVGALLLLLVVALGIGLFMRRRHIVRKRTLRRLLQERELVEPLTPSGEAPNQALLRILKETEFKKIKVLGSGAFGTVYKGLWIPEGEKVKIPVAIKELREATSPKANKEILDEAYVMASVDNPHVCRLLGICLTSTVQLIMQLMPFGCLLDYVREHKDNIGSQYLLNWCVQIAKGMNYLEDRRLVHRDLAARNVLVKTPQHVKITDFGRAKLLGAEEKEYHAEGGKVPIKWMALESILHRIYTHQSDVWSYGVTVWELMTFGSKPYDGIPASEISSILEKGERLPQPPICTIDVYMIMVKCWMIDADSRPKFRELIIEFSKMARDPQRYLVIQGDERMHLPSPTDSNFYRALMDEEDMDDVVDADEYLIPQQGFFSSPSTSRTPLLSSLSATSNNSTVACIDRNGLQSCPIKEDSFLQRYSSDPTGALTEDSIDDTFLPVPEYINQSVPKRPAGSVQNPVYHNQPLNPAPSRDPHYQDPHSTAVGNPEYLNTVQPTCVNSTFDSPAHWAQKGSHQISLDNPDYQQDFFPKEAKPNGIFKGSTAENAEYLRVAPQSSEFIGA
Data set [13] deals with Ribosomal protein S6 kinase beta-2 (Homo sapiens) (UniProt Q9UBS0). As to the kind of experiment: Selectivity interaction (ActivX KiNativ screen (kinase selectivity in THP-1 cell lysates)) EUB0000639a RPS6KB2. The class given is subcellular. As to conditions: lysate.
Sequence of Ribosomal protein S6 kinase beta-2 (Homo sapiens) (Q9UBS0 whole entry): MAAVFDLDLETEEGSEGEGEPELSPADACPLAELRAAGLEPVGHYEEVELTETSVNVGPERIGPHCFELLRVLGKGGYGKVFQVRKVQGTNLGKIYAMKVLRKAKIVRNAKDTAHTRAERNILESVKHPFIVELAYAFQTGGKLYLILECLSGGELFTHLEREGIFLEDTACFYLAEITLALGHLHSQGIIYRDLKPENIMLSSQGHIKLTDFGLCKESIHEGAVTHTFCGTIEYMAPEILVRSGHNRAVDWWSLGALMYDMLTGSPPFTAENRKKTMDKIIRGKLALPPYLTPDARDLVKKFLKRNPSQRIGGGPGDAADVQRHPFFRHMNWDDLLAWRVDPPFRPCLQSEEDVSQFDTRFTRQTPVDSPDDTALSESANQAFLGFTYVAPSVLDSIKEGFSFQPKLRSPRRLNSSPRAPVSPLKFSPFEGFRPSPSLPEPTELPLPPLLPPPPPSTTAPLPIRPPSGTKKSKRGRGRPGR
For data set [14], the target named is T3, 5-hydroxytryptamine receptor 1A (Homo sapiens) (UniProt P08908).
T3 sequence (whole entry): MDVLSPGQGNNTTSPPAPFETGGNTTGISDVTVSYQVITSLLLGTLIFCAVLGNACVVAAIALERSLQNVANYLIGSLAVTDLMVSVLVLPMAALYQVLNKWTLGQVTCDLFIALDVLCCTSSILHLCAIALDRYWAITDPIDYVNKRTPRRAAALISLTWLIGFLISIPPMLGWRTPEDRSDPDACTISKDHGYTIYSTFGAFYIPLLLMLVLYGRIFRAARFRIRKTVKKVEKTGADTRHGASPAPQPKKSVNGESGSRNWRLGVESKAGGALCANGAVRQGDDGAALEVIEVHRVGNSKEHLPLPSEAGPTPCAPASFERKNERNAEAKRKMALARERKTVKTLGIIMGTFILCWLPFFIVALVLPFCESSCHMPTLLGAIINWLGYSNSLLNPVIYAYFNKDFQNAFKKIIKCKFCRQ
The data set is described as follows: Selectivity interaction (Safety Panel 44tm (Eurofins)) EUB0000162b HTR1A. As to conditions: at 10 µM.

The target in data set [15] is Serine/threonine-protein kinase PAK 4 (Homo sapiens, UniProt O96013). The data set is described as follows: Selectivity interaction (Upstate Kinase Profiler service (Millipore)) EUB0000056c PAK4. As to conditions: at 1 µM.
The target of data set [16] is Hepatocyte growth factor receptor (Homo sapiens, UniProt P08581). As to the kind of experiment: Selectivity interaction (Millipore kinase profiler) EUB0000124b MET. The following applies: at 10 µM.
Sequence of Hepatocyte growth factor receptor (P08581 whole entry): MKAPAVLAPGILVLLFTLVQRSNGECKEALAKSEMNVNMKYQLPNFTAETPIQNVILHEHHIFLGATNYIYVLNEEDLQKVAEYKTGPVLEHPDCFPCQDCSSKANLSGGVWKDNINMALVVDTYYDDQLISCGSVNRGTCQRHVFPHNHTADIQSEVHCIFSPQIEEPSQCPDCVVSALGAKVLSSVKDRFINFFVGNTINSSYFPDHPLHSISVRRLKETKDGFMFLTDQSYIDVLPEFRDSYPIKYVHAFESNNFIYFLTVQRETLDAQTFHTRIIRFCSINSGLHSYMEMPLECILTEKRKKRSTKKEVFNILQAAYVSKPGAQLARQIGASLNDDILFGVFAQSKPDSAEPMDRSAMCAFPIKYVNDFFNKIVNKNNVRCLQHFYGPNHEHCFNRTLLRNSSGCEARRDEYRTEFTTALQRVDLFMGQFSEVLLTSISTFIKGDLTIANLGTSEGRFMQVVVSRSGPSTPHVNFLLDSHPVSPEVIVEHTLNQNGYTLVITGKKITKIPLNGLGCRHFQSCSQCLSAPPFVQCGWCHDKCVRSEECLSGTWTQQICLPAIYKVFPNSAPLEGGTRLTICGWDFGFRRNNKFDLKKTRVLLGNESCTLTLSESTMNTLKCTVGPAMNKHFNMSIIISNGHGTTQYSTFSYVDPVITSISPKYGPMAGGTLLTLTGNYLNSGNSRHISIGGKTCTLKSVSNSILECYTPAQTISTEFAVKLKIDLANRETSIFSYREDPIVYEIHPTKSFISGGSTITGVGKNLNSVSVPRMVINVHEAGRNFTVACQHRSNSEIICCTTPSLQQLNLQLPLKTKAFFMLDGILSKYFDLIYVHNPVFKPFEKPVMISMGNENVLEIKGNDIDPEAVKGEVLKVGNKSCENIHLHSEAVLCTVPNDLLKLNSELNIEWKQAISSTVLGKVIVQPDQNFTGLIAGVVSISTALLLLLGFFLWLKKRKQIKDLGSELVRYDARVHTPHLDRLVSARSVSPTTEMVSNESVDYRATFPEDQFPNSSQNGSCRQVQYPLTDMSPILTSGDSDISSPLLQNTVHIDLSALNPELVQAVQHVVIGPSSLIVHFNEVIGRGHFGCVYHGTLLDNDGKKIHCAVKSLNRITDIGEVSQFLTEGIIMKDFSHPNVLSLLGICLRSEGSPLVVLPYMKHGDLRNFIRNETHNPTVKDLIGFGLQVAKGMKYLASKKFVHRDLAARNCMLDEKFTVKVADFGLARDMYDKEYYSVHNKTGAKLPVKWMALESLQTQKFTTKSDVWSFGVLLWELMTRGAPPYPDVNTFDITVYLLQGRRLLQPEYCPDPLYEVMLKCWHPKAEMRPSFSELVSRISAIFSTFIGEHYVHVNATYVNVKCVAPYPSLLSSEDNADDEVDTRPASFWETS

Sequence of Epidermal growth factor receptor (Homo sapiens), P00533 [L858R] (P00533 whole entry L858R): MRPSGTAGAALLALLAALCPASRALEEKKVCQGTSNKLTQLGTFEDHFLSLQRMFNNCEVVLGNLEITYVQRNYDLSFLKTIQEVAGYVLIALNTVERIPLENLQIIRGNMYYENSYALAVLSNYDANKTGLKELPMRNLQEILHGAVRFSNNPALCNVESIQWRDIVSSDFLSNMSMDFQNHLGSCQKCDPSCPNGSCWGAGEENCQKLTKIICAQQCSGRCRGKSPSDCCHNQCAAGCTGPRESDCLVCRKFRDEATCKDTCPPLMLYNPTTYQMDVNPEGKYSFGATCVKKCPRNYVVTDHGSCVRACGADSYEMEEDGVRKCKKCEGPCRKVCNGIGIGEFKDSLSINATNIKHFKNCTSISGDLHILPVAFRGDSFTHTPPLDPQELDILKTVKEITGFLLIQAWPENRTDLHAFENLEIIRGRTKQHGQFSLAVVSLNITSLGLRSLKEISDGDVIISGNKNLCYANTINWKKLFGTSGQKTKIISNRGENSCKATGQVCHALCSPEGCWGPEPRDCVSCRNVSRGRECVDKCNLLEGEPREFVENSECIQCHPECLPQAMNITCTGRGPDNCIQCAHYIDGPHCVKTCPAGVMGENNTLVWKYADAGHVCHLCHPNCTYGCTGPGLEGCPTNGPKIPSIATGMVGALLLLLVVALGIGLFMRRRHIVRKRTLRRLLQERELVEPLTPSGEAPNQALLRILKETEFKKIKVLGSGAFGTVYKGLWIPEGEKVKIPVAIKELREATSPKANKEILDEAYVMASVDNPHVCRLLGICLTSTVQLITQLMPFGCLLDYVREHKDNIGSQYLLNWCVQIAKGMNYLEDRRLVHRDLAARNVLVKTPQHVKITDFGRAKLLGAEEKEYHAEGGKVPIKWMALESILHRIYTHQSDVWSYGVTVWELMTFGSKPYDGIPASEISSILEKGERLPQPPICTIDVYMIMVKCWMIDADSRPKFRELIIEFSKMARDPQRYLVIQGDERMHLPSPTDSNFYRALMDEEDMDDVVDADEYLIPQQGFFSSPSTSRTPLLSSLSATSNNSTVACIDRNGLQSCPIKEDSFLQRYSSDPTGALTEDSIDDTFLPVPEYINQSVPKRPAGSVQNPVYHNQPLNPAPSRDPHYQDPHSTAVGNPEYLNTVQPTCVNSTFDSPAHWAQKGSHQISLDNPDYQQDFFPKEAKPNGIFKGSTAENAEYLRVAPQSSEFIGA

As for `Cn1cc(-n2cnc3c(NCc4nc5cc(Cl)c(Cl)cc5[nH]4)nc(N4CCOCC4)nc32)cn1`, the % of control in data set [1] is -10.1%.
For the compound `COCC(=O)NC/C=C/c1ccc2ncnc(Nc3ccc(Oc4ccc(C)nc4)c(C)c3)c2c1` [CP-724714], the % of control in [2] was found to be 96%.
As to `CC(=O)c1cc(-c2ccccc2OCC2CC2)c2ncccn12`, the activity in [3] is 21%.
With `Cc1cc(F)c(C(=O)Nc2cccc(-c3nncn3C(C)C)n2)cc1-n1cnc(C2CC2)c1`, the % of control in [4] turned out to be 92%.
As to `CNC(=O)Nc1ccc(-c2nc(N3CC4CCC(C3)O4)c3cnn(C4CCC5(CC4)OCCO5)c3n2)cc1`, the % of control came to 53% in data set [5]; 62% in [6]; 64% in [7]; 69% in data set [8]; 68% in data set [9]; 80% in [10]. Moreover, the % of control in data set [11] was found to be 38%; in [12] it was 100%.
Take `CC[C@@H]1[C@H](F)C(=O)N[C@@H]1COc1nccc2cc(C(N)=O)c(OC)cc12` [ZIMLOVISERTIB]: the % of inhibition in data set [13] (at 0.01 µM) was -0.4%; in [13] (at 0.04 µM) it was 9.9%; in data set [13] (at 0.2 µM), -6.2%; in data set [13] (at 1 µM) it was -5.5%; in data set [13] (at 5 µM), 3.9%.
Regarding `CN(C)C(=O)Cn1cc(-c2ccc(-c3cncc4ccccc34)cc2)cn1`, the % of control in data set [14] came to 50%.
For `Cc1ccc(-c2ccc3c(ccc4sc5c(c43)NC[C@@H](C)NC5=O)n2)cn1`, in [15], the % of inhibition came to 3%.
In the case of `CC(=O)Nc1cccc(-n2c(=O)n(C3CC3)c(=O)c3c(Nc4ccc(I)cc4F)n(C)c(=O)c(C)c32)c1`, the % of control in data set [16] was determined as 150%.
